Assays:
Format in all cases: physicochemical
[1] = Solution stability (pH 5.2) at high temperature, impurities by HPLC; conditions: solution 1 mg/mL; for Total impurities, 4th day: 4 days; for Total impurities, 7th day: 7 days; for Total impurities, 14th day: 14 days
Description: Solution Stability (pH 5.2)
Sibutramine free base, sibutramine hydrochloride monohydrate and sibutramine inclusion complex (Examples 1 and 2) were compared in terms of solution stability at high temperature.
Specifically, each compound was dissolved into the concentration of 1 mg/mL and pH 5.2, and the solution was moved to a 20 mL vial. Solution stability test was conducted at 60° C. and 70° C., respectively, by measuring the content of impurities with high performance liquid chromatography (HPLC) after the storage for 4, 7 and 14 days.

[2] = Temperature & humidity stability, impurities by HPLC; conditions: for Content of impurities, 60° C., 75%: stored at 60° C. 75% for 2 weeks; for Content of impurities, 60° C., 93%: stored at 60° C. 93% for 2 weeks; for Content of impurities, 70° C., 75%: stored at 70° C. 75% for 2 weeks
Description: Temperature & Humidity Stability
Sibutramine free base, sibutramine hydrochloride monohydrate and sibutramine inclusion complex (Examples 1 and 2) were compared in terms of temperature and humidity stability.
Specifically, each compound was stored under the condition selected from the group consisting of 60° C. 75%, 60° C. 93% and 70° C. 75% for 2 weeks. The content impurities was measured with high performance liquid chromatography (HPLC).

[3] = Photo-stability after UV-irradiation, impurities by HPLC; conditions: for Content of impurities, UV: after UV-irradiation for 120 hours (total radiation dosage: 200 watt); for Content of impurities, Initial: before UV-irradiation
Description: Sibutramine free base, sibutramine hydrochloride monohydrate and sibutramine inclusion complex (Examples 1 and 2) were compared in terms of photo-stability.
After UV-irradiation for 120 hours (total radiation dosage: 200 watt), the content of impurities was measured with high performance liquid chromatography (HPLC).

SMILES | Total impurities, 4th day ([1]; pH 5.2, 60 C.) | Total impurities, 7th day ([1]; pH 5.2, 60 C.) | Total impurities, 14th day ([1]; pH 5.2, 60 C.) | Total impurities, Initial ([1]; pH 5.2, 60 C.) | Total impurities, 4th day ([1]; pH 5.2, 70 C.) | Total impurities, 7th day ([1]; pH 5.2, 70 C.) | Total impurities, 14th day ([1]; pH 5.2, 70 C.) | Total impurities, Initial ([1]; pH 5.2, 70 C.) | Temperature and humidity stability, in words ([2]; comparison of Table 3) | Content of impurities, Initial [2] | Content of impurities, 60° C., 75% [2] | Content of impurities, 60° C., 93% [2] | Content of impurities, 70° C., 75% [2] | Content of impurities, UV [3] | Content of impurities, Initial [3]
CC(C)CC(N(C)C)C1(c2ccc(Cl)cc2)CCC1 (centres unmarked) [Sibutramine free base, N,N-dimethyl-1-[1-(4-chlorophenyl)-cyclobutyl]-3-methylbutylamine] | 7.59% | 13.77% | 17.16% | 0.00% | 10.04% | 17.05% | 20.52% | 0.00% | most unstable | 0.00 | 5.65 | 6.09 | 8.27 | 0.33 | 0.00
CC(C)CC(N(C)C)C1(c2ccc(Cl)cc2)CCC1.Cl (centres unmarked) [Sibutramine hydrochloride monohydrate] | 0.02% | 0.02% | 0.09% | 0.00% | 1.56% | 2.09% | 4.49% | 0.00% |  | 0.00 | 0.06 | 0.07 | 0.13 | 0.11 | 0.06

From US20100099773A1, “INCLUSION COMPLEX OF S[…] BETA-CYCLODEXTRIN” (priority 2006, published 2010)
